Assays:
[1] = Stability of the compound in PBS at pH 7 measured for 48 hrs by 1H-NMR analysis; type: physicochemical; details: buffer, pH 7, 48 h
[2] = Stability of the compound in presence of GCPII/PSMA expressing human DU-145 cells by 1H-NMR analysis; type: ADME, cell-based
[3] = target: Glutamate carboxypeptidase 2 (Homo sapiens, UniProt Q04609); experiment: Inhibition of GCPII (unknown origin) expressed in DU-145 cells after 1 hr by [67Ga]Ga-DOTA-PSMA competitive binding assay with gamma counting
Glutamate carboxypeptidase 2, sequence (Q04609 whole entry): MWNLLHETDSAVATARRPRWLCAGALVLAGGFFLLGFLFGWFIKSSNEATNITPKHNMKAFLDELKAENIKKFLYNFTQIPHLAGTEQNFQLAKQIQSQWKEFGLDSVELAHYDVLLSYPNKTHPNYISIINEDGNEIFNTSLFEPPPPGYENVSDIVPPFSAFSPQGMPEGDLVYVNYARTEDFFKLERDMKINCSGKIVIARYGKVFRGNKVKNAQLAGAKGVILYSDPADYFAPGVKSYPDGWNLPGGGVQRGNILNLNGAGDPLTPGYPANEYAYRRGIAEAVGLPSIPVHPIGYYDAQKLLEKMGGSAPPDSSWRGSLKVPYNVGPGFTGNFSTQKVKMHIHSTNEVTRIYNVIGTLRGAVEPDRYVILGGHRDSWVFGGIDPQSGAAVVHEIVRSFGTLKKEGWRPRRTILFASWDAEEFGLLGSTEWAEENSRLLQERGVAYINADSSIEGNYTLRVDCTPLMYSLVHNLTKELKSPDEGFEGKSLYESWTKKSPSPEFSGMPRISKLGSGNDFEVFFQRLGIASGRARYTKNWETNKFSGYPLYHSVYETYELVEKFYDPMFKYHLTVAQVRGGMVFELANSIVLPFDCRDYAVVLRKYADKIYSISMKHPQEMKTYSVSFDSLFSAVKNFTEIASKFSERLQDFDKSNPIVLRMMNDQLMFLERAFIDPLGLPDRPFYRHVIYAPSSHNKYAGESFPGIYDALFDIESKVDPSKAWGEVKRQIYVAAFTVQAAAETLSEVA

Row | Compound | Stabilty [1] | Stabilty [2] | IC50 [3]
1 | O=C(O)CC[C@H](NC(=O)N[C@@H](CCC(=O)O)C(=O)O)C(=O)O | Stable | Stable | 1.34 µM
2 | O=C(O)CC[C@H](NC(=S)N[C@@H](CCC(=O)O)C(=O)O)C(=O)O | Stable | Stable | 135 µM

Source: ChEMBL document CHEMBL4811257, “Dipeptide inhibitors of the prostate specific membrane antigen (PSMA): A comparison of urea and thiourea derivatives” (Bioorg Med Chem Lett, 2021)
